Biological target: T1, HIF-3α (Mus musculus, UniProt Q0VBL6)
T1 construct: gene Hif3a; SPR: MBP-HIF-3α-PAS-B (residues 235-363); crystal: HIF-3α residues 4-358 with ARNT residues 82–464; with ARNT (in the crystal, thermal shift, AS-MS, TR-FRET and HDX-MS; not in SPR)
Experiment: co-crystal structure ([…] Å), SPR, thermal shift, AS-MS, HDX-MS
Format: binding

T1 sequence (Q0VBL6 235-363): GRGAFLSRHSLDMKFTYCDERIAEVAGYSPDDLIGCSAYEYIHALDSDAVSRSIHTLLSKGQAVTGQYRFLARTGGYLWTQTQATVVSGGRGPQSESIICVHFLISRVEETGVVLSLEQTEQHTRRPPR

Kd: ~14 µM
Compound: CCCCCCCC/C=C\CCCCCCCC(=O)NCCO [OEA, oleoylethanolamide]
